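How tested: cells in 96-well plates exposed to compound for 48 hours at five concentrations. GI50: concentration for 50% inhibition of growth. Definition used: TGI = concentration required for complete inhibition of growth.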
Legend:
Assay in all cases: inhibition of tumour cell growth, NCI panel, 48 h
[1] = system: A549 NSCLC
[2] = system: CCRF-CEM leukemia
[3] = system: IGROV1 ovarian
[4] = system: K-562 leukemia
[5] = system: LOX IMVI melanoma
[6] = system: TK-10 renal
[7] = system: BT-549 breast
[8] = system: COLO 205 colon
[9] = system: HS 578T breast
[10] = system: RPMI-8226 leukemia
[11] = system: A498 renal

Row | SMILES | TGI [1] [µM] | TGI [2] [µM] | TGI [3] [µM] | TGI [4] [µM] | TGI [5] [µM] | TGI [6] [µM] | TGI [7] [µM] | TGI [8] [µM] | TGI [9] [µM] | TGI [10] [µM] | TGI [11] [µM] | GI50 [11] [µM] | GI50 [1] [µM] | GI50 [2] [µM] | GI50 [8] [µM] | GI50 [3] [µM] | GI50 [4] [µM] | GI50 [5] [µM] | GI50 [10] [µM] | GI50 [6] [µM]
1 | CC1OC=CC(=O)C1O (centres undefined) | > 100 | > 100 | > 100 | > 100 | > 100 | > 100 | – | – | – | – | – | – | – | – | – | – | – | – | – | –
2 | COc1ccc(N2C(=O)/C(=C/c3ccc(N(CCC#N)CCC#N)cc3)N=C2c2ccccc2)c(OC)c1 | – | 74.9 | > 100 | 87 | – | > 100 | > 100 | > 100 | > 100 | > 100 | – | – | – | – | – | – | – | – | – | –
3 | CC(C)CC(NC(=O)C(COc1ccc([N+](=O)[O-])cc1)Cc1ccccc1)C(=O)Nc1ccccc1 (centres undefined) | 69.2 | > 100 | 31.2 | > 100 | > 100 | 50.3 | 29.7 | > 100 | – | > 100 | 72.2 | – | – | – | – | – | – | – | – | –
4 | C=C1CC(OC)(C(O)C(=O)N[C@H]2OCO[C@H]3C2O[C@H](C[C@H](O)COC)C(C)(C)C3OC)O[C@H](C)[C@@H]1C (some centres undefined) | > 0.00772 | > 0.00772 | > 0.00772 | > 0.00772 | – | – | – | > 0.00772 | – | > 0.00772 | > 0.00772 | – | – | – | – | – | – | – | – | –
5 | COc1cccc2c1[C@]1(O)C(O)CCCC21 (some centres undefined) | > 100 | > 100 | > 100 | > 100 | > 100 | > 100 | – | > 100 | – | > 100 | > 100 | – | – | – | – | – | – | – | – | –
6 | CN(C)c1ccc(/C=C2\C[C@H]3[C@@H]4CCc5cc(O)ccc5[C@H]4CC[C@]3(C)C2=O)cc1 | > 100 | > 100 | > 100 | > 100 | > 100 | > 100 | – | > 100 | 30.5 | > 100 | > 100 | – | – | – | – | – | – | – | – | –
7 | CC1(C)N=C(N)N=C(N)N1c1ccc(OCCCOc2ccccc2)c(Cl)c1 | > 100 | 29.7 | 7.52 | > 42.8 | 13.7 | – | – | 15.1 | – | 28.9 | 30.2 | – | – | – | – | – | – | – | – | –
8 | CCOC(=O)N1C(=S)C(C(=O)OC)(C(=O)OC)N=C1C | > 100 | > 100 | > 100 | > 100 | > 100 | > 100 | > 100 | > 100 | – | > 100 | > 100 | – | – | – | – | – | – | – | – | –
9 | NC1CCCCC1N.O=S(=O)([O-])CCCN1CCN(CCO)CC1.O=S(=O)([O-])CCCN1CCN(CCO)CC1.[Pt+4] | > 100 | > 50.5 | > 100 | 44.8 | > 100 | – | – | 19.6 | – | 20.5 | > 100 | 6.05 | 4.7 | 2.21 | 1.82 | 8.14 | 4.81 | 5.97 | 0.423 | –
10 | CC(=O)Nc1ccc(/C=C(\NC(=O)c2ccccc2)C(=O)NNS(=O)(=O)c2ccc(C)cc2)cc1 | > 100 | > 100 | > 100 | > 100 | 38.2 | > 100 | – | 71.2 | – | 49 | – | – | – | – | – | – | – | – | – | –
11 | CCOC(=O)C1=C(C)N(c2ccc(C)cc2)C2(O)C=CC(=O)C3=C(O)c4ccccc4C(=O)C312 (centres undefined) | > 100 | > 100 | 45.5 | – | 96.8 | > 100 | 49.3 | > 100 | – | 53.5 | 67.9 | – | – | – | – | – | – | – | – | –
12 | c1cc2ccc1CNCCN1CCNCc3ccc(cc3)Oc3ccc(cc3)CNCCN(CCNCc3ccc(cc3)O2)CCNCc2ccc(cc2)Oc2ccc(cc2)CNCC1 | – | – | – | – | – | 3.45 | – | – | – | – | – | – | – | – | – | – | – | – | – | 1.62
13 | CC1(C)CC(=O)C(=CN2C(=O)CNC2=S)C(=O)C1 | > 100 | > 100 | > 100 | – | – | > 100 | > 100 | > 100 | > 100 | – | – | – | – | – | – | – | – | – | – | –
14 | O=C(NC/C=C/Br)NC1CCNc2ccccc21 (centres undefined) | > 100 | > 100 | > 100 | > 100 | 56.8 | > 100 | – | 37.7 | – | 58.7 | 70.4 | – | – | – | – | – | – | – | – | –
15 | CC(=O)[C@H]1CCC2[C@@H]3CC=C4C(O)C(OS(=O)(=O)O)CC[C@]4(C)C3CC[C@@]21C (some centres undefined) | > 100 | > 100 | > 100 | > 100 | > 100 | – | – | > 100 | – | > 100 | > 100 | – | – | – | – | – | – | – | – | –
16 | CC(C)c1nccn1Cc1ccc(Cl)cc1Cl | > 100 | – | > 100 | > 100 | > 100 | > 100 | > 100 | > 100 | – | 57.8 | > 100 | – | – | – | – | – | – | – | – | –
17 | C=C(C(=O)OC)[C@H]1CC/C(C)=C/CC/C(C)=C/CC[C@@]2(C)O[C@@H]2C1 | 37.4 | 30 | 31.5 | 25.7 | 28.8 | 59 | – | 28.6 | – | 32.8 | 62.2 | – | – | – | – | – | – | – | – | –

Row | SMILES | TGI [1] [µM] | TGI [2] [µM] | TGI [3] [µM] | TGI [4] [µM] | TGI [5] [µM] | TGI [6] [µM] | TGI [7] [µM] | TGI [8] [µM] | TGI [9] [µM] | TGI [10] [µM] | TGI [11] [µM] | GI50 [11] [µM] | GI50 [1] [µM] | GI50 [2] [µM] | GI50 [8] [µM] | GI50 [3] [µM] | GI50 [4] [µM] | GI50 [5] [µM] | GI50 [10] [µM] | GI50 [6] [µM]
18 | CCOC(=O)C[n+]1ccc2c([nH]c3cc(OC)ccc32)c1C | > 100 | > 100 | > 100 | > 100 | > 100 | – | – | > 100 | – | > 100 | > 100 | – | – | – | – | – | – | – | – | –
19 | CC1(C)CC2(C)OC(=N)C1(C#N)C2(C#N)C#N (centres undefined) | 60 | – | 29.9 | 33.5 | 3.09 | 22.7 | – | 14.9 | 37.7 | 23.7 | 28.7 | – | – | – | – | – | – | – | – | –
20 | c1ccc(CNc2ncnc3n[nH]nc23)cc1 | > 100 | > 100 | > 100 | > 100 | > 100 | > 100 | – | > 100 | – | – | > 100 | – | – | – | – | – | – | – | – | –
21 | COc1cc(S(=O)(=O)N/N=C/c2cc(Br)c(O)c(OC)c2)c(OC)cc1NC(C)=O | > 100 | 56.5 | > 100 | > 100 | > 100 | > 100 | > 100 | 51.3 | – | > 100 | > 100 | – | – | – | – | – | – | – | – | –
22 | O=c1c(-c2ccc(O)cc2)coc2cc(O)cc(O)c12 | > 100 | – | > 100 | > 100 | – | > 100 | > 100 | > 100 | > 100 | > 100 | – | – | – | – | – | – | – | – | – | –
23 | COc1cccc(C2CC(=O)c3cccn32)c1 (centres undefined) | > 100 | > 100 | > 100 | > 100 | > 100 | > 100 | – | > 100 | > 100 | > 100 | > 100 | – | – | – | – | – | – | – | – | –
24 | COc1ccccc1N1C(=O)/C(=C\c2cccc(Oc3ccccc3)c2)S(=O)(=O)C1c1ccccc1 (centres undefined) | > 100 | > 100 | – | > 100 | > 100 | > 100 | 83.6 | 88.3 | – | – | > 100 | – | – | – | – | – | – | – | – | –
25 | CCOC(=O)c1c(-c2ccc(OC)c(O)c2)c(C#N)c(=S)n(C2OC(CO)C(O)C(O)C2O)c1-c1ccccc1 (centres undefined) | > 100 | > 100 | > 100 | > 100 | > 100 | – | – | > 100 | > 100 | > 100 | > 100 | – | – | – | – | – | – | – | – | –
26 | C[C@@H]1OCC(O)C([C@H]2OC(c3ccccc3)=N[C@H]2CO)O1 (some centres undefined) | > 100 | > 100 | > 100 | > 100 | > 100 | > 100 | – | > 100 | > 100 | > 100 | > 100 | – | – | – | – | – | – | – | – | –
27 | O=C1OC2C=CC1C1(CCOC1=O)C2 (centres undefined) | > 100 | > 100 | > 100 | > 100 | > 100 | > 100 | – | > 100 | – | > 100 | > 100 | – | – | – | – | – | – | – | – | –
28 | C[n+]1c(-c2ccc(/C=N/Nc3ccnc(N/N=C/c4ccc(-c5cn6ccccc6[n+]5C)cc4)n3)cc2)cn2ccccc21 | > 100 | – | > 100 | – | – | > 100 | – | > 100 | 93.1 | 73.3 | – | – | – | – | – | – | – | – | – | –
29 | CC1(C)O[C@@H](CP(c2cccc3ccccc23)c2cccc3ccccc23)[C@H](CP(c2cccc3ccccc23)c2cccc3ccccc23)O1 | > 100 | > 100 | > 100 | > 100 | > 100 | > 100 | > 100 | > 100 | – | – | – | – | – | – | – | – | – | – | – | –
30 | Oc1ccc2ccccc2c1OCc1nnc(CCCCCCCCc2nnc(COc3c(O)ccc4ccccc34)o2)o1 | > 100 | – | > 100 | > 100 | – | > 100 | > 100 | > 100 | – | > 100 | > 100 | – | – | – | – | – | – | – | – | –
31 | CN(CCN(C)C(=O)CCn1ccc(=O)[nH]c1=O)C(=O)CCn1ccc(=O)[nH]c1=O | > 100 | > 100 | > 100 | > 100 | > 100 | > 100 | – | > 100 | – | > 100 | – | – | – | – | – | – | – | – | – | –
32 | O=C(O)CCCc1ccc2c(c1)CC1(C2)Cc2ccc(CCCC(=O)O)cc2C1 | > 100 | > 100 | > 100 | > 100 | > 100 | > 100 | – | > 100 | > 100 | > 100 | > 100 | – | – | – | – | – | – | – | – | –
33 | CCCCCCc1cn([C@H]2C[C@H](O)[C@@H](CO)O2)c(=O)[nH]c1=O | > 100 | > 100 | > 100 | > 100 | > 100 | – | – | – | – | > 100 | > 100 | – | – | – | – | – | – | – | – | –
34 | O=C(C=P(c1ccccc1)(c1ccccc1)c1ccccc1)c1ccc(-c2ccc(F)cc2F)cc1 | 11.4 | 7.06 | – | 5.31 | – | 7.2 | – | 3.14 | 28.3 | 4.43 | 7.41 | – | – | – | – | – | – | – | – | –

From PubChem BioAssay (NCI)
